Measurements taken from PubChem BioAssay AID1845198 (Molecular Pharmacology Branch, DTP, NCI, 2023).
pIC50: −log10 of the molar value.

System: 425362-245-T-J1 tumor spheroids, viability % test/control
Test: Anticancer human tumor 425362-245-T-J1 patient-derived melanoma cell line growth inhibition
Details: spheroids with HUVEC and MSC; for viability, T/C: stronger effect = lower value
How it was run: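 Single agents and combinations were tested on spheroids built from tumor cells plus HUVEC and hMSC, at half-log dilutions starting at or near clinical Cmax, else 10 microM; final DMSO 0.25% (v/v).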
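Note: spheroids exposed to agents for 7 days.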

## Cn1ncnc1[C@H]1c2n[nH]c(=O)c3cc(F)cc(c23)N[C@@H]1c1ccc(F)cc1 + Cn1nnc2c(C(N)=O)ncn2c1=O
Curve of first compound, second compound 1 µM
  pIC50: 7.61
Curve of first compound, second compound 3.16 µM
  pIC50: 7.87
Curve of first compound, second compound 10 µM
  pIC50: 7.90
Curve of first compound, second compound 31.6 µM
  pIC50: > 8.02
Curve of first compound, second compound 100 µM
  pIC50: > 8.02
Second compound 1 µM, first compound 0.00949 µM
  viability, T/C: 59.9%
Second compound 1 µM, first compound 0.03 µM
  viability, T/C: 48.6%
Second compound 1 µM, first compound 0.0949 µM
  viability, T/C: 27%
Second compound 1 µM, first compound 0.3 µM
  viability, T/C: 12.1%
Second compound 1 µM, first compound 0.949 µM
  viability, T/C: 9.08%
Second compound 1 µM, first compound 3 µM
  viability, T/C: 2.19%
Second compound 3.16 µM, first compound 0.00949 µM
  viability, T/C: 54.8%
Second compound 3.16 µM, first compound 0.03 µM
  viability, T/C: 40.1%
Second compound 3.16 µM, first compound 0.0949 µM
  viability, T/C: 19.1%
Second compound 3.16 µM, first compound 0.3 µM
  viability, T/C: 14.3%
Second compound 3.16 µM, first compound 0.949 µM
  viability, T/C: 7.67%
Second compound 3.16 µM, first compound 3 µM
  viability, T/C: 2.76%
Second compound 10 µM, first compound 0.00949 µM
  viability, T/C: 57.8%
Second compound 10 µM, first compound 0.03 µM
  viability, T/C: 26.8%
Second compound 10 µM, first compound 0.0949 µM
  viability, T/C: 15.8%
Second compound 10 µM, first compound 0.3 µM
  viability, T/C: 13.2%
Second compound 10 µM, first compound 0.949 µM
  viability, T/C: 7%
Second compound 10 µM, first compound 3 µM
  viability, T/C: 3.32%
Second compound 31.6 µM, first compound 0.00949 µM
  viability, T/C: 27.6%
Second compound 31.6 µM, first compound 0.03 µM
  viability, T/C: 12%
Second compound 31.6 µM, first compound 0.0949 µM
  viability, T/C: 9.07%
Second compound 31.6 µM, first compound 0.3 µM
  viability, T/C: 7.7%
Second compound 31.6 µM, first compound 0.949 µM
  viability, T/C: 5.14%
Second compound 31.6 µM, first compound 3 µM
  viability, T/C: 2.14%
Second compound 100 µM, first compound 0.00949 µM
  viability, T/C: 7.96%
Second compound 100 µM, first compound 0.03 µM
  viability, T/C: 7.44%
Second compound 100 µM, first compound 0.0949 µM
  viability, T/C: 5.25%
Second compound 100 µM, first compound 0.3 µM
  viability, T/C: 4.75%
Second compound 100 µM, first compound 0.949 µM
  viability, T/C: 4.31%
Second compound 100 µM, first compound 3 µM
  viability, T/C: 2.46%

## Cn1nnc2c(C(N)=O)ncn2c1=O
Compound 3.16 µM
  viability, T/C: 106% [middle of 10 runs]
Compound 31.6 µM
  viability, T/C: 108% [middle of 10 runs]
Compound 100 µM
  viability, T/C: 92.1% [middle of 10 runs]
Compound alone, run of 10/17/2019
  pIC50: < 4.00

## CNCc1ccc(-c2cc(-c3nc(-c4ccc(S(=O)(=O)C(C)C)cc4)cnc3N)on2)cc1 + COc1cc2c(cc1O)CCNC21CSC2c3c(OC(C)=O)c(C)c4c(c3C(COC1=O)N1C(O)C3Cc5cc(C)c(OC)c(O)c5C(C21)N3C)OCO4
Curve of first compound, second compound 30 pM
  pIC50: 6.79
Curve of first compound, second compound 94.9 pM
  pIC50: 6.88
Curve of first compound, second compound 0.0003 µM
  pIC50: > 8.02
Curve of first compound, second compound 0.000949 µM
  pIC50: > 8.02
Curve of first compound, second compound 0.003 µM
  pIC50: > 8.02
Second compound 30 pM, first compound 0.00949 µM
  viability, T/C: 108%
Second compound 30 pM, first compound 0.03 µM
  viability, T/C: 113%
Second compound 30 pM, first compound 0.0949 µM
  viability, T/C: 85.1%
Second compound 30 pM, first compound 0.3 µM
  viability, T/C: 8.53%
Second compound 30 pM, first compound 0.949 µM
  viability, T/C: 2.32%
Second compound 30 pM, first compound 3 µM
  viability, T/C: 0.13%
Second compound 94.9 pM, first compound 0.00949 µM
  viability, T/C: 96.3%
Second compound 94.9 pM, first compound 0.03 µM
  viability, T/C: 103%
Second compound 94.9 pM, first compound 0.0949 µM
  viability, T/C: 68.1%
Second compound 94.9 pM, first compound 0.3 µM
  viability, T/C: 3.99%
Second compound 94.9 pM, first compound 0.949 µM
  viability, T/C: 1.51%
Second compound 94.9 pM, first compound 3 µM
  viability, T/C: 0.15%
Second compound 0.0003 µM, first compound 0.00949 µM
  viability, T/C: 43.7%
Second compound 0.0003 µM, first compound 0.03 µM
  viability, T/C: 37%
Second compound 0.0003 µM, first compound 0.0949 µM
  viability, T/C: 16.4%
Second compound 0.0003 µM, first compound 0.3 µM
  viability, T/C: 1.69%
Second compound 0.0003 µM, first compound 0.949 µM
  viability, T/C: 0.79%
Second compound 0.0003 µM, first compound 3 µM
  viability, T/C: 0.15%
Second compound 0.000949 µM, first compound 0.00949 µM
  viability, T/C: 0.41%
Second compound 0.000949 µM, first compound 0.03 µM
  viability, T/C: 0.41%
Second compound 0.000949 µM, first compound 0.0949 µM
  viability, T/C: 0.27%
Second compound 0.000949 µM, first compound 0.3 µM
  viability, T/C: 0.35%
Second compound 0.000949 µM, first compound 0.949 µM
  viability, T/C: 0.13%
Second compound 0.000949 µM, first compound 3 µM
  viability, T/C: 0.17%
Second compound 0.003 µM, first compound 0.00949 µM
  viability, T/C: 0.26%
Second compound 0.003 µM, first compound 0.03 µM
  viability, T/C: 0.28%
Second compound 0.003 µM, first compound 0.0949 µM
  viability, T/C: 0.27%
Second compound 0.003 µM, first compound 0.3 µM
  viability, T/C: 0.22%
Second compound 0.003 µM, first compound 0.949 µM
  viability, T/C: 0.2%
Second compound 0.003 µM, first compound 3 µM
  viability, T/C: 0.27%
